Publication PMC11892739, “Site-specific molecular glues for the 14-3-3/Tau pS214 protein–protein interaction via reversible covalent imine tethering” (RSC Medicinal Chemistry, 2025)

Key:
Type in all cases: binding
[1] = system: 14-3-3ζ/Tau pS2 peptide interaction; assay: Fluorescence anisotropy 14-3-3ζ titration in the presence of 250 μM compound and Tau pS2 peptide; conditions: 250 μM compound; 100 nM client peptides, 10 nM Tau pS2 peptide
Protocol: On the other hand, the PPI stabilizing potency of series 1 compounds was highly dependent on the position and chemical property of the substituent. […] The compound screen for these compounds was further complemented by 14-3-3ζ titration assays in the presence of a constant concentration of compound (250 μM) and Tau pS2 peptide (10 nM) (Fig. 3c, ESI ^† Fig. S6).
This statement is strengthened by the diminished stabilizing activity when shifting the more polar chloro substituent from the para (14) to the ortho (5) to the meta position (8), respectively. […]
chromatography (HisTrap high performance cartridges, Cytiva). Typically two 5 mL columns were used for a 2 L culture in which the lysate was loaded on the column, washed with 10 CV wash buffer (50 mM Hepes, pH 8.0, 300 mM NaCl, 25 mM imidazole, 2 mM βME), and eluted with several fractions (2-4 CV) of elution buffer (50 mM Hepes, pH 8.0, 300 mM NaCl, 250 mM imidazole, 2 mM βME). Fractions containing the 14-3-3 protein were combined and dialyzed into 25 mM HEPES pH 8.0, 200 mM NaCl, 10 mM MgCl2, 2 mM βME, followed by dialysis into 25 mM HEPES, 100 mM NaCl, 10 mM MgCl2, 500 μM TCEP (adjusted to pH 8.0). Dialyzed protein was concentrated to ∼40 mg/mL, analyzed by Q -Tof LC/MS, and aliquots were flash -frozen for storage at −80 °C. For 14 -3-3σ∆c, 1 mg TEV per 100 mg purified protein was added to the dialysis to remove the purification tag. The cleaved sample was then again loaded on a 10 mL Ni-NTA column to separate the cleaved product from the expression tag and residual uncleaved protein. The flowthrough was loade d on a Superdex 75 pg 16/60 size exclusion column (GE Life Sciences) using 25 mM HEPES, 100 mM NaCl, 10 mM MgCl2, 500 μM TCEP (adjusted to pH = 8.0) as running buffer. Fractions containing the 14 -3-3 protein were pooled and concentrated to ∼60 mg/mL, analyzed Q -Tof LC/MS, and aliquots were flash -frozen for storage at −80°C.
Fluorescence Anisotropy – compound titration
Compound titration assays were performed by titrating compounds (in 1% DMSO, starting at 500 μM) in a 2-fold dilution series to preformed complex of fluorescein -labeled Tau pS2 (10 nM) and 14 -3-3ζ (100 nM) (which represents approximately 20% bound Tau pS2 peptide to 14 -3-3ζ to allow further complex formation by addition of fragments 1) in FA buffer (10 mM HEPES pH 7.4, 150 mM NaCl, 50 µM TCEP, 0.1% (v/v) Tween20, 0.1% (w/v) BSA). Dilution series were made in polystyrene low -volume 384 -well plates (Corning #4514, Black Round Bottom). Measurements were performed directly after plate preparation, using a Tecan SPARK plate reader at room temperature ( λex: 485±20 nm; λem: 535±25 nm; mirror: automatic; flashes: 30; settle time: 1 ms; gain: optimal; Z -position: calculated from well). Wells containing only fluorescein labelled peptide were used to set as G -factor calibrated from these wells. All data were analyzed using GraphPad Prism (10.0.1) and fitted with a four -parameter logistic model (4PL) to determine binding affinities (dissociation constant, KD). All data shown is background corrected for the signal without 14 -3-3ζ and the mean and standard deviation of technical duplicate is plotted, assay performed in a scientific duplicate for hit compounds.
Fluorescence Anisotropy – 14-3-3 titrations in the presence of compound To characterize the affinity of the Tau peptides for 14-3-3 in the presence of compound, 14-3-3ζ or γ was titrated in a 2-fold dilution series starting at 400 (for the 14-3-3ζ titrations to Tau pS2) or 800 (for the 14-3-3γ titrations to Tau pS214 or pS324) µM. 14-3-3 was added to 10 nM of fluorescein-labeled peptide (Tau pS2, Tau pS214 or Tau pS324) in the presence of 250 µM compound (1% DMSO). The assays were performed in a similar way as described above. Data shown is the average and standard deviation of a technical duplicate, top plateau corrected where needed, assay performed in a scientific duplicate.
Fluorescence Anisotropy – peptide screen […]

14-3-3ζ/RND3 peptide = molecular target: T1, 14-3-3ζ/RND3 peptide (Homo sapiens, UniProt P63104); assay: FA peptide screen, 14-3-3ζ titration to client peptide and compound: RND3; conditions: 250 μM compound, 100 nM peptide; +1 Cys
T1 construct: made in house; host or cells: NiCo21 (DE3) E. coli
Protocol: (§1) Since the hub protein 14-3-3 binds to hundreds of phosphoprotein partners, selectivity of PPI stabilization is a major challenge. The interplay of chemical reactivity, and the topology and functionality of the composite binding pocket shaped by 14-3-3 and Tau potentially provide entries towards selective stabilization. […] Here, 14-3-3ζ was titrated to a constant concentration of client peptide (100 nM) and compound (250 μM) to determine the SF250μM values for the particular 14-3-3 PPI. A variety of 14-3-3 binding proteins was represented in this client panel whereby the size and hydrophobicity of the +1 amino acid were varied. […]
(§2) chromatography (HisTrap high performance cartridges, Cytiva). Typically two 5 mL columns were used for a 2 L culture in which the lysate was loaded on the column, washed with 10 CV wash buffer (50 mM Hepes, pH 8.0, 300 mM NaCl, 25 mM imidazole, 2 mM βME), and eluted with several fractions (2-4 CV) of elution buffer (50 mM Hepes, pH 8.0, 300 mM NaCl, 250 mM imidazole, 2 mM βME). […] Dialyzed protein was concentrated to ∼40 mg/mL, analyzed by Q -Tof LC/MS, and aliquots were flash -frozen for storage at −80 °C. […] Fractions containing the 14 -3-3 protein were pooled and concentrated to ∼60 mg/mL, analyzed Q -Tof LC/MS, and aliquots were flash -frozen for storage at −80°C.
(§3) Fluorescence Anisotropy – compound titration […]

14-3-3ζ/C-Raf peptide = molecular target: T2, 14-3-3ζ/C-Raf peptide (Homo sapiens, UniProt P63104); assay: FA peptide screen, 14-3-3ζ titration to client peptide and compound: C-Raf; conditions: 250 μM compound, 100 nM peptide; +1 Thr
T2 construct: made in house; host or cells: NiCo21 (DE3) E. coli
Protocol: as §1, §2, §3

14-3-3ζ/Raptor peptide = molecular target: T3, 14-3-3ζ/Raptor peptide (Homo sapiens, UniProt P63104); assay: FA peptide screen, 14-3-3ζ titration to client peptide and compound: Raptor; conditions: 250 μM compound, 100 nM peptide; +1 Tyr
T3 construct: made in house; host or cells: NiCo21 (DE3) E. coli
Protocol: as §1, §2, §3

T2 sequence (P63104 whole entry): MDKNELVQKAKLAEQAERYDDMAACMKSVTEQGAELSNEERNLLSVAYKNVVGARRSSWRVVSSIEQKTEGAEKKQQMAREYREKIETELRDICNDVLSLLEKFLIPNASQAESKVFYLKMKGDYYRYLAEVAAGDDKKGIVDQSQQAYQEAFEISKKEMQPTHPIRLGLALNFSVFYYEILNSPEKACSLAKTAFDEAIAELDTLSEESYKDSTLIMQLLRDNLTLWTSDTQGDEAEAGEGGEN
T3 sequence (P63104 whole entry, other chains not shown): as the sequence (P63104 whole entry) above
T1 sequence (P63104 whole entry, other chains not shown): as the sequence (P63104 whole entry) above

## CCc1ccc(-c2nccn2-c2ccc(C=O)c(Br)c2)cc1 [Compound 18]
[1]
  selectivity against panel of 13 14-3-3 client peptides (in words): selective for the 14-3-3ζ/Tau pS2 peptide complex
14-3-3ζ/RND3 peptide
  stabilization of 14-3-3/RND3 peptide (in words): did not show significant stabilizing activity
14-3-3ζ/C-Raf peptide
  stabilization of 14-3-3/C-Raf peptide (in words): did not show significant stabilizing activity
14-3-3ζ/Raptor peptide
  stabilization of 14-3-3/Raptor peptide (in words): no significant stabilization
